{
  "source": "patent EP0297435A2",
  "about": "“Aminopropanol derivatives of 3-(3'-hydroxyphenyl)-1-propanone, process for their preparation and medicines containing these compounds” (Helopharm W. Petrik GmbH & Co.KG., priority 1987, dated 1989)",
  "key": {"[1]": {"tested_on": "Meerschweinchen-Papillarmuskel", "experiment": "Effect on contraction force of the heart, guinea pig papillary muscle", "assay_type": "cell-based", "settings": "contraction force (negative inotropy), read-out: C20 CF", "excerpt": "Die Wirkung auf die Kontraktionskraft des Herzens wurde am Meerschweinchen-Papillarmuskel untersucht. Hämodynamische Studien wurden bei gesunden, wie auch akut infarzierten Hunden durchgeführt."}, "[2]": {"tested_on": "Purkinje-Fasern aus Hundeherzen", "experiment": "Electrophysiological studies on Purkinje fibres from dog hearts (Vmax)", "assay_type": "cell-based, Hund", "excerpt": "Die antiarrhythmische Wirksamkeit der erfindungsgemäßen Verbindungen wurde sowohl anhand von elektrophysiologischen Studien an Purkinje-Fasern aus Hundeherzen sowie mit Hilfe von Ouabaininduzierten ventrikulären Tachykardien bei Hunden bestimmt. […]\nAls zusätzliches Kriterium wurde der Vorzeitigkeitsindex (Prematurity-Faktor) bestimmt, der die erwünschte Wirksamkeit der erfindungsgemäßen Verbindungen bei vorzeitigen Extrasystolen charakterisiert."}, "[3]": {"experiment": "Acute toxicity LD50 in rats, i.v.", "settings": "rat, in vivo, iv; Ratte (i.v.); read-out: LD₅₀"}, "[4]": {"experiment": "Acute toxicity LD50 in mice, i.v.", "settings": "mouse, in vivo, iv; Maus (i.v.); read-out: LD₅₀"}},
  "data": [
    {"smiles": "CCC(C)(C)NCC(O)COc1cc(CCC(=O)c2ccc(C)cc2)ccc1OC.Cl", "note": "(stereo not drawn) [Beispiel 36, 1-(4-Methylphenyl)-3-[3′-(2-hydroxy-3-tert.-pentylaminopropoxy)-4′-methoxyphenyl]-1-propanon-hydrochlorid]", "values": [
      {"measurement": "IC20", "setting": "[1]", "result": 8, "unit": "µM"},
      {"measurement": "IC20", "setting": "[2]; Purkinje-Fasern aus Hundeherzen, read-out: C20 Vmax", "result": 2.8, "unit": "µM"},
      {"measurement": "Prematurity Faktor Vmax", "setting": "[2]; Vorzeitigkeitsindex, activity on premature extrasystoles", "result": "0,99"},
      {"measurement": "Rate-Faktor von Vmax", "setting": "[2]; specifically stronger activity at higher frequencies", "result": "1,41"},
      {"measurement": "LD50", "setting": "[3]", "result": 10, "unit": "mg/kg"},
      {"measurement": "LD50", "setting": "[4]", "result": 18, "unit": "mg/kg"}
    ]}
  ]
}
